According to the supplement of paper PMC10307832:

Assays:
Test in all cases: relative viability (nuclei count vs DMSO), 5 days (fraction); higher = more cells survive
Bromopyruvate + OSI-027 = compound: C(C(=O)C(=O)O)Br [Bromopyruvate] + COc1cccc2cc(-c3nc([C@H]4CC[C@H](C(=O)O)CC4)n4ncnc(N)c34)[nH]c12 [OSI-027] (partner 0.5 µM)
How it was run: (§1)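 After 5 days of treatment, lung cancer cells in 1536-well plates were fixed and stained in a single step (final 0.05% Triton X-100, 1% formaldehyde, 1 ug/ml Hoechst) and their nuclei counted on 4× images. Treatment had been applied by pin tool the day after seeding as one drug alone or as a fixed anchor-drug dose with five library-drug doses (not always all listed) in √10 steps. Relative viability is the nuclei count of treated wells divided by that of vehicle wells, and values are medians of duplicate plates.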

Bicalutamide + AZD7762 = compound: CC(O)(CS(=O)(=O)c1ccc(F)cc1)C(=O)Nc1ccc(C#N)c(C(F)(F)F)c1 [Bicalutamide] + NC(=O)Nc1cc(-c2cccc(F)c2)sc1C(=O)N[C@H]1CCCNC1 [AZD7762] (partner 0.2 µM)
How it was run: as §1

[1] = compound: CC(O)(CS(=O)(=O)c1ccc(F)cc1)C(=O)Nc1ccc(C#N)c(C(F)(F)F)c1 [Bicalutamide] + CCNC(=O)c1noc(-c2cc(C(C)C)c(O)cc2O)c1-c1ccc(CN2CCOCC2)cc1 [Luminespib] (partner 0.01 µM)
How it was run: as §1

Bicalutamide + Lapatinib = compound: CC(O)(CS(=O)(=O)c1ccc(F)cc1)C(=O)Nc1ccc(C#N)c(C(F)(F)F)c1 [Bicalutamide] + CS(=O)(=O)CCNCc1ccc(-c2ccc3ncnc(Nc4ccc(OCc5cccc(F)c5)c(Cl)c4)c3c2)o1 [Lapatinib] (partner 2 µM)
How it was run: as §1

NCI-H838
relative viability (Bromopyruvate + OSI-027; first compound 1 µM): 0.428
relative viability (Bromopyruvate + OSI-027; first compound 3.162 µM): 0.37
relative viability (Bromopyruvate + OSI-027; first compound 10 µM): 0.422
relative viability (Bromopyruvate + OSI-027; first compound 31.62 µM): 0.386
relative viability (Bromopyruvate + OSI-027; first compound 100 µM): 0.393
relative viability (Bicalutamide + AZD7762; first compound 0.08 µM): 0.965
relative viability (Bicalutamide + AZD7762; first compound 0.253 µM): 0.958
relative viability (Bicalutamide + AZD7762; first compound 0.8 µM): 1.02
relative viability (Bicalutamide + AZD7762; first compound 2.53 µM): 0.909
relative viability ([1]; first compound 0.08 µM): 0.282
relative viability ([1]; first compound 0.253 µM): 0.226
relative viability ([1]; first compound 0.8 µM): 0.331
relative viability ([1]; first compound 2.53 µM): 0.309
relative viability (Bicalutamide + Lapatinib; first compound 0.08 µM): 1.09
relative viability (Bicalutamide + Lapatinib; first compound 0.253 µM): 0.881
relative viability (Bicalutamide + Lapatinib; first compound 0.8 µM): 1.38
relative viability (Bicalutamide + Lapatinib; first compound 2.53 µM): 0.734

NCI-H1355
relative viability (Bromopyruvate + OSI-027; first compound 1 µM): 0.462
relative viability (Bromopyruvate + OSI-027; first compound 3.162 µM): 0.455
relative viability (Bromopyruvate + OSI-027; first compound 10 µM): 0.372
relative viability (Bromopyruvate + OSI-027; first compound 31.62 µM): 0.425
relative viability (Bromopyruvate + OSI-027; first compound 100 µM): 0.498
relative viability (Bicalutamide + AZD7762; first compound 0.08 µM): 0.828
relative viability (Bicalutamide + AZD7762; first compound 0.253 µM): 0.701
relative viability (Bicalutamide + AZD7762; first compound 0.8 µM): 0.923
relative viability (Bicalutamide + AZD7762; first compound 2.53 µM): 0.72
relative viability ([1]; first compound 0.08 µM): 0.797
relative viability ([1]; first compound 0.253 µM): 0.694
relative viability ([1]; first compound 0.8 µM): 0.787
relative viability ([1]; first compound 2.53 µM): 0.818
relative viability (Bicalutamide + Lapatinib; first compound 0.08 µM): 1
relative viability (Bicalutamide + Lapatinib; first compound 0.253 µM): 0.902
relative viability (Bicalutamide + Lapatinib; first compound 0.8 µM): 0.974
relative viability (Bicalutamide + Lapatinib; first compound 2.53 µM): 1.03

NCI-H1395
relative viability (Bromopyruvate + OSI-027; first compound 1 µM): 0.679
relative viability (Bromopyruvate + OSI-027; first compound 3.162 µM): 0.672
relative viability (Bromopyruvate + OSI-027; first compound 10 µM): 0.669
relative viability (Bromopyruvate + OSI-027; first compound 31.62 µM): 0.591
relative viability (Bromopyruvate + OSI-027; first compound 100 µM): 0.637
relative viability (Bicalutamide + AZD7762; first compound 0.08 µM): 0.402
relative viability (Bicalutamide + AZD7762; first compound 0.253 µM): 0.399
relative viability (Bicalutamide + AZD7762; first compound 0.8 µM): 0.394
relative viability (Bicalutamide + AZD7762; first compound 2.53 µM): 0.377
relative viability ([1]; first compound 0.08 µM): 0.726
relative viability ([1]; first compound 0.253 µM): 0.774
relative viability ([1]; first compound 0.8 µM): 0.854
relative viability ([1]; first compound 2.53 µM): 0.621
relative viability (Bicalutamide + Lapatinib; first compound 0.08 µM): 0.858
relative viability (Bicalutamide + Lapatinib; first compound 0.253 µM): 0.956
relative viability (Bicalutamide + Lapatinib; first compound 0.8 µM): 1.29
relative viability (Bicalutamide + Lapatinib; first compound 2.53 µM): 0.869

NCI-H1437
relative viability (Bromopyruvate + OSI-027; first compound 1 µM): 0.921
relative viability (Bromopyruvate + OSI-027; first compound 3.162 µM): 0.861
relative viability (Bromopyruvate + OSI-027; first compound 10 µM): 0.943
relative viability (Bromopyruvate + OSI-027; first compound 31.62 µM): 0.909
relative viability (Bromopyruvate + OSI-027; first compound 100 µM): 0.847
relative viability (Bicalutamide + AZD7762; first compound 0.08 µM): 1.17
relative viability (Bicalutamide + AZD7762; first compound 0.253 µM): 1.13
relative viability (Bicalutamide + AZD7762; first compound 0.8 µM): 1.15
relative viability (Bicalutamide + AZD7762; first compound 2.53 µM): 1.19
relative viability ([1]; first compound 0.08 µM): 1.17
relative viability ([1]; first compound 0.253 µM): 1.15
relative viability ([1]; first compound 0.8 µM): 1.1
relative viability ([1]; first compound 2.53 µM): 1.05
relative viability (Bicalutamide + Lapatinib; first compound 0.08 µM): 0.826
relative viability (Bicalutamide + Lapatinib; first compound 0.253 µM): 0.736
relative viability (Bicalutamide + Lapatinib; first compound 0.8 µM): 1.01
relative viability (Bicalutamide + Lapatinib; first compound 2.53 µM): 0.711

NCI-H1651
relative viability (Bromopyruvate + OSI-027; first compound 1 µM): 0.746
relative viability (Bromopyruvate + OSI-027; first compound 3.162 µM): 0.704
relative viability (Bromopyruvate + OSI-027; first compound 10 µM): 0.799
relative viability (Bromopyruvate + OSI-027; first compound 31.62 µM): 0.694
relative viability (Bromopyruvate + OSI-027; first compound 100 µM): 0.63
relative viability (Bicalutamide + AZD7762; first compound 0.08 µM): 0.513
relative viability (Bicalutamide + AZD7762; first compound 0.253 µM): 0.396
relative viability (Bicalutamide + AZD7762; first compound 0.8 µM): 0.549
relative viability (Bicalutamide + AZD7762; first compound 2.53 µM): 0.436
relative viability ([1]; first compound 0.08 µM): 0.767
relative viability ([1]; first compound 0.253 µM): 0.67
relative viability ([1]; first compound 0.8 µM): 0.918
relative viability ([1]; first compound 2.53 µM): 0.874
relative viability (Bicalutamide + Lapatinib; first compound 0.08 µM): 0.731
relative viability (Bicalutamide + Lapatinib; first compound 0.253 µM): 0.744
relative viability (Bicalutamide + Lapatinib; first compound 0.8 µM): 1.07
relative viability (Bicalutamide + Lapatinib; first compound 2.53 µM): 0.788

NCI-H1666
relative viability (Bromopyruvate + OSI-027; first compound 1 µM): 0.913
relative viability (Bromopyruvate + OSI-027; first compound 3.162 µM): 0.881
relative viability (Bromopyruvate + OSI-027; first compound 10 µM): 0.836
relative viability (Bromopyruvate + OSI-027; first compound 31.62 µM): 0.923
relative viability (Bromopyruvate + OSI-027; first compound 100 µM): 0.854
relative viability (Bicalutamide + AZD7762; first compound 0.08 µM): 0.928
relative viability (Bicalutamide + AZD7762; first compound 0.253 µM): 0.759
relative viability (Bicalutamide + AZD7762; first compound 0.8 µM): 0.873
relative viability (Bicalutamide + AZD7762; first compound 2.53 µM): 0.801
relative viability ([1]; first compound 0.08 µM): 1.04
relative viability ([1]; first compound 0.253 µM): 0.989
relative viability ([1]; first compound 0.8 µM): 1.03
relative viability ([1]; first compound 2.53 µM): 0.961
relative viability (Bicalutamide + Lapatinib; first compound 0.08 µM): 0.733
relative viability (Bicalutamide + Lapatinib; first compound 0.253 µM): 0.652
relative viability (Bicalutamide + Lapatinib; first compound 0.8 µM): 0.815
relative viability (Bicalutamide + Lapatinib; first compound 2.53 µM): 0.662

NCI-H1734
relative viability (Bromopyruvate + OSI-027; first compound 1 µM): 0.599
relative viability (Bromopyruvate + OSI-027; first compound 3.162 µM): 0.611
relative viability (Bromopyruvate + OSI-027; first compound 10 µM): 0.731
relative viability (Bromopyruvate + OSI-027; first compound 31.62 µM): 0.562
relative viability (Bromopyruvate + OSI-027; first compound 100 µM): 0.595
relative viability (Bicalutamide + AZD7762; first compound 0.08 µM): 0.568
relative viability (Bicalutamide + AZD7762; first compound 0.253 µM): 0.439
relative viability (Bicalutamide + AZD7762; first compound 0.8 µM): 0.645
relative viability (Bicalutamide + AZD7762; first compound 2.53 µM): 0.571
relative viability ([1]; first compound 0.08 µM): 0.193
relative viability ([1]; first compound 0.253 µM): 0.174
relative viability ([1]; first compound 0.8 µM): 0.212
relative viability ([1]; first compound 2.53 µM): 0.186
relative viability (Bicalutamide + Lapatinib; first compound 0.08 µM): 1.18
relative viability (Bicalutamide + Lapatinib; first compound 0.253 µM): 0.904
relative viability (Bicalutamide + Lapatinib; first compound 0.8 µM): 1.25
relative viability (Bicalutamide + Lapatinib; first compound 2.53 µM): 0.971

NCI-H1755
relative viability (Bromopyruvate + OSI-027; first compound 1 µM): 0.77
relative viability (Bromopyruvate + OSI-027; first compound 3.162 µM): 0.773
relative viability (Bromopyruvate + OSI-027; first compound 10 µM): 0.729
relative viability (Bromopyruvate + OSI-027; first compound 31.62 µM): 0.777
relative viability (Bromopyruvate + OSI-027; first compound 100 µM): 0.726
relative viability (Bicalutamide + AZD7762; first compound 0.08 µM): 0.382
relative viability (Bicalutamide + AZD7762; first compound 0.253 µM): 0.388
relative viability (Bicalutamide + AZD7762; first compound 0.8 µM): 0.475
relative viability (Bicalutamide + AZD7762; first compound 2.53 µM): 0.365
relative viability ([1]; first compound 0.08 µM): 0.475
relative viability ([1]; first compound 0.253 µM): 0.58
relative viability ([1]; first compound 0.8 µM): 0.435
relative viability ([1]; first compound 2.53 µM): 0.292
relative viability (Bicalutamide + Lapatinib; first compound 0.08 µM): 1.03
relative viability (Bicalutamide + Lapatinib; first compound 0.253 µM): 1.06
relative viability (Bicalutamide + Lapatinib; first compound 0.8 µM): 1.05
relative viability (Bicalutamide + Lapatinib; first compound 2.53 µM): 0.928

NCI-H2342
relative viability (Bromopyruvate + OSI-027; first compound 1 µM): 0.552
relative viability (Bromopyruvate + OSI-027; first compound 3.162 µM): 0.603
relative viability (Bromopyruvate + OSI-027; first compound 10 µM): 0.542
relative viability (Bromopyruvate + OSI-027; first compound 31.62 µM): 0.545
relative viability (Bromopyruvate + OSI-027; first compound 100 µM): 0.497
relative viability (Bicalutamide + AZD7762; first compound 0.08 µM): 0.553
relative viability (Bicalutamide + AZD7762; first compound 0.253 µM): 0.478
relative viability (Bicalutamide + AZD7762; first compound 0.8 µM): 0.528
relative viability (Bicalutamide + AZD7762; first compound 2.53 µM): 0.568
relative viability ([1]; first compound 0.08 µM): 0.682
relative viability ([1]; first compound 0.253 µM): 0.752
relative viability ([1]; first compound 0.8 µM): 0.746
relative viability ([1]; first compound 2.53 µM): 0.729

SW 900
relative viability (Bromopyruvate + OSI-027; first compound 1 µM): 0.589
relative viability (Bromopyruvate + OSI-027; first compound 3.162 µM): 0.543
relative viability (Bromopyruvate + OSI-027; first compound 10 µM): 0.558
relative viability (Bromopyruvate + OSI-027; first compound 31.62 µM): 0.562
relative viability (Bromopyruvate + OSI-027; first compound 100 µM): 0.526
relative viability (Bicalutamide + AZD7762; first compound 0.08 µM): 0.707
relative viability (Bicalutamide + AZD7762; first compound 0.253 µM): 0.645
relative viability (Bicalutamide + AZD7762; first compound 0.8 µM): 0.745
relative viability (Bicalutamide + AZD7762; first compound 2.53 µM): 0.586
relative viability ([1]; first compound 0.08 µM): 0.175
relative viability ([1]; first compound 0.253 µM): 0.153
relative viability ([1]; first compound 0.8 µM): 0.172
relative viability ([1]; first compound 2.53 µM): 0.17
